Key:
[1] = system: RIPK1 phosphorylation and MLKL oligomerization in FADD deficient Jurkat cells; assay: Western blot of key proteins in TNFα-induced FADD deficient Jurkat cell programmed necrosis pathway; type: cell-based, human; conditions: TNFα-stimulated FADD deficient Jurkat cells, FIG. 2
Source text: In order to verify whether the compounds of the present invention can inhibit programmed cell death by inhibiting the activity of RIPK1, and to detect the activation of downstream proteins of programmed necrosis pathway, TNFα was used to stimulate FADD deficient Jurkat to produce programmed necrosis, and the compounds of the present invention were used to treat the cells at the same time. Cells were harvested after a period of time to detect phosphorylation of RIPK1 and oligomerization of MLKL using western blot.
FADD deficient Jurkat cells (human peripheral blood leukemia T cell line) were cultured in vitro. […] The BCA protein quantification kit was used to detect the protein content of each group, and PIPA lysis buffer was used to adjust the protein amount to make the final volume of 100 μL. […]
25 μL of 5* protein loading buffer was added to 100 μL of cell lysate, and the mixture was heated at 95° C. for 10 min After the samples were cooled, electrophoresis was carried out using SDS-PAGE (9%) gel at 60V, and then switched to 120V after 30 min until the leading band was electrophoresed to the bottom of the gel. […] The resulting sample was incubated with ECL luminescent solution and detected the luminescent signal.

[2] = target: T1, RIPK1(1-330) protein (Homo sapiens, UniProt Q13546); assay: ADP-Glo kinase activity assay at different ATP concentrations; type: biochemical; parameters: RIPK1(1-330) protein with a final concentration of 2 μL and ATP; made in house; conditions: FIG. 4
T1 sequence (Q13546 1-330): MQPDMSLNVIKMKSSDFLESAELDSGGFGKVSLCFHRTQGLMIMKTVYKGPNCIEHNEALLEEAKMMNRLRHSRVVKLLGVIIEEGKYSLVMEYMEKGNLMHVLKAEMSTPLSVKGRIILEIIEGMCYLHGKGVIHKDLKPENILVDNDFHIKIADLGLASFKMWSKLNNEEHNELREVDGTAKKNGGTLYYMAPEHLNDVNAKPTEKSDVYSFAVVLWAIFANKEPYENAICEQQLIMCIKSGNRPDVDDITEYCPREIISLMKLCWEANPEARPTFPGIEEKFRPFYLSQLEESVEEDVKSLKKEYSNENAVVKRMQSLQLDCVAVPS
Description: The adopted biological test protocol was: The effect of compound QY-1-98 on the kinase activity of RIPK1(1-330) protein was tested. The purified RIPK1(1-330) protein in vitro retained the complete kinase activity domain and maintained good kinase activity. Through the IC50 of the compounds of the present invention inhibiting RIPK1 kinase activity in the environment with different concentrations of ATP, the binding mode of the compounds to RIPK1 is obtained. Nec-1s, a known ATP-noncompetitive inhibitor of RIPK1, was used as a control.
RIPK1(1-330) protein with a final concentration of […] and ATP (1× kinase buffer) with a corresponding concentration were added to the 384-well plate, with a […]. At least 3 duplicate wells were set in each group. The reaction was carried out at 37° C. for 2H. 5 μL of ADP-Glo reagent was added, which is used to stop the kinase reaction and remove residual ATP from the reaction system. The reaction solution was placed at room temperature for 40 min 10 μL of kinase detection reagent was added, which is used to convert ADP to ATP and luciferase and luciferin were introduced to detect ATP in the system. The reaction was carried out at room temperature for 1H. Luminescence was detected using the 7500 Fast Real-Time PCR System. The IC50 of the compounds inhibiting the kinase reaction was calculated using Prism Graphpad statistical software.

[3] = target: T1, RIPK1(1-330) protein; assay: Protein thermal shift assay; type: binding; parameters: RIPK1(1-330) protein (final concentration 2 μM) was expressed and purified in insect cells; made in house; host or cells: insect cells; conditions: FIG. 3
Description: The interaction between RIPK1 protein and compound was analyzed by studying the thermal stability of the protein. Small molecule ligands can stabilize proteins by binding to proteins, increasing the Tm value of proteins. The interaction between the compound and the protein can be indirectly judged by testing the effect of the compound on the thermal stability of the protein. RIPK1 protein contains kinase domain (1-312), intermediate domain (312-582) and death domain (582-669), and RIPK1 (1-330) protein purified in vitro contains all kinase domains.
The adopted biological test protocol was to test the effect of compound QY-1-98 on the thermal stability of RIPK1 (1-330) protein using protein thermal shift assay, using the known RIPK1 inhibitor Nec-1s as a control.
RIPK1(1-330) protein (final concentration 2 μM) was expressed and purified in insect cells, mixed with the corresponding concentration of compound and SYRO Orange Protein gel stain dye (final concentration 5×). 10 μL of final volume was added to 384-well plate, and at least 3 duplicate wells were set in each group. After the samples were placed for 2 hours at room temperature, the 7500 Fast Real-Time PCR System was applied to test the thermal stability of the protein by […]. The temperature was set at 25° C.-95° C., 0.015° C./s. The datas were analyzed using protein thermal shift software.

With `Cc1noc([C@@H]2CCCN2C(=O)C(C)(C)Oc2ccc(Cl)cc2)n1` [QY-1-98] the “oligomerization of MLKL” value [1] was “can inhibit”, the “phosphorylation of RIPK1” value [1] was “can inhibit the phosphorylation of RIPK1” and the “activity of RIPK1 (1-330) protein kinase in vitro” value ([2]; ADP-Glo) was “can inhibit the activity of RIPK1 (1-330) protein kinase in vitro”. For the same compound, the “change of IC50 with the increase of ATP concentration” value ([2]; different ATP concentrations) was “does not change significantly” and the “thermal stability of RIPK1 (1-330) protein” value [3] was “can significantly improve the thermal stability”.
